One block for each compound: values may come before it.
Experiments:
[1] = test system: Ssa-PreQ1 RNA (RNA, riboswitch) AGAGGUUCCUAGCUGAUACCCUCUAUAAAAAACUA; assay: photocrosslinking, PAGE gel shift; settings: PreQ1 folding buffer: 100 mM KCl, 1 mM MgCl2, covalent, 50 µM RNA, 75 µM compound, 365 nm 35 min
[2] = test system: Tte PreQ1 RNA (unlabeled) (RNA, riboswitch) CUGGGUCGCAGUAACCCCAGUUAACAAAACAAG; assay: competition with CNV photocrosslinking, PAGE; settings: PreQ1 folding buffer: 100 mM KCl, 1 mM MgCl2; PreQ1 0X-10X; dose-dependent inhibition of CNV crosslinking
[3] = test system: Ssa-PreQ1 RNA (RNA, riboswitch) AGAGGUUCCUAGCUGAUACCCUCUAUAAAAAACUA; assay: competition with bio-CNV photocrosslinking, pull-down, RNAseq; settings: PreQ1 folding buffer: 100 mM KCl, 1 mM MgCl2; 1 µM aptamer in MCF7 total RNA, 250 µM bio-CNV, 500 µM PreQ1; enrichment abolished
[4] = test system: Ssa-PreQ1 RNA (RNA, riboswitch) AGAGGUUCCUAGCUGAUACCCUCUAUAAAAAACUA; assay: photocrosslinking, streptavidin pull-down, PAGE; settings: PreQ1 folding buffer: 100 mM KCl, 1 mM MgCl2; covalent; 50 µM RNA, 75 µM bio-CNV, 35 min; also pulled down from MCF7 total RNA
[5] = test system: Cy5-labelled Tte PreQ1 RNA (RNA, riboswitch) CUGGGUCGCAGUAACCCCAGUUAACAAAACAAG; assay: microscale thermophoresis; settings: 100 mM KCl, 1 mM MgCl2; 50 mM Tris pH 7.5, 5% DMSO, RT; irradiated 365 nm 35 min before MST, covalent, apparent
[6] = test system: Bsu PreQ1 aptamer (RNA, riboswitch) AGAGGUUCUAGCUACACCCUCUAUAAAAAACUAA; assay: photocrosslinking, PAGE gel shift and MALDI-TOF; settings: PreQ1 folding buffer: 100 mM KCl, 1 mM MgCl2; covalent; 50 µM RNA, 75 µM CNV, 365 nm 35 min, RT
[7] = test system: Oih PreQ1 aptamer (RNA, riboswitch) AGAGGUUCUUAGCUUCAACCCUCUAUAAAAAACUAA; assay: photocrosslinking, PAGE gel shift and MALDI-TOF; settings: PreQ1 folding buffer: 100 mM KCl, 1 mM MgCl2; covalent; 50 µM RNA, 75 µM CNV, 365 nm 35 min, RT
[8] = test system: Bpu PreQ1 aptamer (RNA, riboswitch) AGAGGUUCUAGCAAAACCCUCUAUAAAAAACUAA; assay: photocrosslinking, PAGE gel shift and MALDI-TOF; settings: PreQ1 folding buffer: 100 mM KCl, 1 mM MgCl2; covalent; 50 µM RNA, 75 µM CNV, 365 nm 35 min, RT
[9] = test system: Gth PreQ1 aptamer (RNA, riboswitch) AGAGGUUUCUAGCAAAACCCUCUAUAAAAAACUA; assay: photocrosslinking, PAGE gel shift and MALDI-TOF; settings: PreQ1 folding buffer: 100 mM KCl, 1 mM MgCl2; covalent; 50 µM RNA, 75 µM CNV, 365 nm 35 min, RT
[10] = test system: Tte PreQ1 RNA (unlabeled) (RNA, riboswitch) CUGGGUCGCAGUAACCCCAGUUAACAAAACAAG; assay: photocrosslinking, denaturing PAGE and fluorescence; settings: PreQ1 folding buffer: 100 mM KCl, 1 mM MgCl2; covalent; 50 µM RNA, 75 µM CNV, 365 nm; 15% crosslinked at 35 min

Compound: N#C/C=C/c1ccc2[nH]c3cccnc3c2c1
binding ([1]; minimal uncaging at 302 nm): yes

Compound: NCc1c[nH]c2nc(N)[nH]c(=O)c12
binding [2]: yes
binding [3]: yes

Compound: N#C/C=C/c1ccc2[nH]c3ccc(CCCOC(=O)CCCc4cn(CCOCCOCCOCCNC(=O)CCCC[C@@H]5SC[C@@H]6NC(=O)N[C@@H]65)nn4)cc3c2c1
binding [4]: yes

Other lines, results leading:

binding ([1]; minimal uncaging at 302 nm): yes
Compound: N#C/C=C/c1ccc2[nH]c3ccncc3c2c1

KD [5]: 400 ± 200 nM
binding ([1]; reversed at 302 nm): yes
binding [6]: yes
binding [7]: yes
binding [8]: yes
binding [9]: yes
binding [10]: yes
Compound: N#C/C=C/c1ccc2[nH]c3ccccc3c2c1

— PMC12105704 (2025)
